Results as given in publication PMC4522185 (ChemistryOpen, 2015).
In brackets after ≈: the same amount, converted by molar mass. Where two headings read alike, the source gives them in different places.

Legend:
[1] = molecular target: human 20S proteasome (chymotrypsin-like activity, with PA28 activator) (Homo sapiens, UniProt P28074); test: fluorogenic suc-LLVY-AMC cleavage; assay type: biochemical
physchem [2] = details: pbs, pH 7.4, aqueous buffer
[3] = molecular target: T1, Mtb 20S open-gate proteasome (Mycobacterium tuberculosis, UniProt P9WHT9); test: biochemical
physchem [4] = details: ch3cn+pbs (1+1), pH 7.4
[5] = molecular target: T1, Mtb 20S open-gate proteasome; test: biochemical; remark: listed apart in the source
physchem [6] = details: ch3cn+pbs (1+1), pH 7.4; remark: listed apart in the source
physchem [7] = details: pbs, pH 7.4, aqueous buffer; remark: listed apart in the source
physchem [8] = details: ch3cn+pbs (1+1), pH 7.4; remark: listed apart in the source

Chain of human 20S proteasome (chymotrypsin-like activity, with PA28 activator) (P28074 60-263): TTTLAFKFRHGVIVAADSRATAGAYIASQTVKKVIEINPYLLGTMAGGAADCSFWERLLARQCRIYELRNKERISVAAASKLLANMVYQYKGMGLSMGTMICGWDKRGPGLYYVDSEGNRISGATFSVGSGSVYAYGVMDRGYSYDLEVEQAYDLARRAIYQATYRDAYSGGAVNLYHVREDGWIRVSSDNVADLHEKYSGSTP
Chain of human 20S proteasome (chymotrypsin-like activity, with PA28 activator) (P25786 whole entry partner): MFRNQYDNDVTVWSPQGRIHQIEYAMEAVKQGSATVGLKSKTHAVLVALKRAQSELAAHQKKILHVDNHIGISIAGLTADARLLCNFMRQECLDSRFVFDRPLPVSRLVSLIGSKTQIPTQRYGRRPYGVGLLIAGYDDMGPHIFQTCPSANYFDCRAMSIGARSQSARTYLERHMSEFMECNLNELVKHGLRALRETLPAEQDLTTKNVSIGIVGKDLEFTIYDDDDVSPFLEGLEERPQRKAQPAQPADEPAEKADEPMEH
T1 sequence (P9WHT9 whole entry): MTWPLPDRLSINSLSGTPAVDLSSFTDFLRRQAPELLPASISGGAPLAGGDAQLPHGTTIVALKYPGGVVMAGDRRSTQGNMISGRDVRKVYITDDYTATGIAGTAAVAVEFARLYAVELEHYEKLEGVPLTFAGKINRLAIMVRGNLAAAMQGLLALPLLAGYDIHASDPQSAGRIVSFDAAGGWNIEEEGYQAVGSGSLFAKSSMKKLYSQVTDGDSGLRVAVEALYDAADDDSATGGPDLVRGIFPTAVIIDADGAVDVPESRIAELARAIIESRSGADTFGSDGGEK
T1 sequence (P9WHU1 whole entry partner): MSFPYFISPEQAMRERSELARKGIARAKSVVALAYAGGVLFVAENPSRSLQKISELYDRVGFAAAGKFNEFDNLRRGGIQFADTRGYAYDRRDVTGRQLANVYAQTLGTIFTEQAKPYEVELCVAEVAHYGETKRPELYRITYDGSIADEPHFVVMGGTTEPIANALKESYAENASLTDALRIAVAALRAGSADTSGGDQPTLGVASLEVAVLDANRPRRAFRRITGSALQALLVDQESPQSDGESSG

Compound | IC50 [1] | IC50 [5] | remaining at 24 h, 50 µM (physchem [6]) | also measured
O=c1oc(Cc2ccccc2C(F)(F)F)ns1 [compound 13, 5-(2-(Trifluoromethyl)benzyl)-1,3,4-oxathiazol-2-one] | 8.7 µM |  |  | 
O=c1oc(/C=C/c2ccc(C(F)(F)F)cc2)ns1 [compound 18, (E)-5-(4-(Trifluoromethyl)styryl)-1,3,4-oxathiazol-2-one] | > 100 µM |  |  | solubility at 18 h (physchem [2]): 0.1 µM (≈ 0.0273 µg/mL)
O=c1oc(-c2cnccn2)ns1 [compound 2] |  |  |  | IC50 [3]: 2.3 µM; remaining at 24 h, 50 µM (physchem [4]): 3.6%; solubility at 18 h (physchem [2]): 35.1 µM (≈ 6.36 µg/mL)
O=c1oc(Cc2ccccc2)ns1 [compound 9, 5-Benzyl-1,3,4-oxathiazol-2-one] | 1.9 µM |  |  | 
COc1cccc(-c2nsc(=O)o2)c1 [compound 3] |  |  |  | IC50 [3]: 0.665 µM; remaining at 24 h, 50 µM (physchem [4]): 15.4%; solubility at 18 h (physchem [2]): 30.9 µM (≈ 6.47 µg/mL)
CCc1cccc(/C=C/c2nsc(=O)o2)c1 [compound 42, (E)-5-(3-Ethylstyryl)-1,3,4-oxathiazol-2-one] | 32.5 µM | 1.45 µM | 96.4% | 
Cc1ccccc1/C=C/c1nsc(=O)o1 [compound 45, (E)-5-(2-Methylstyryl)-1,3,4-oxathiazol-2-one] | > 100 µM |  | 94% | 
O=C(c1ccccc1)c1ccc(/C=C/c2nsc(=O)o2)cc1 [compound 34, (E)-5-(4-Benzoylstyryl)-1,3,4-oxathiazol-2-one] | 87 µM | 1.19 µM | 96.1% | 
O=c1nc2c(/C=C/c3nsc(=O)o3)cccn2s1 [compound 56, (E)-5-(2-(2-Oxo-2 H-[1,2,4]thiadiazolo[2,3-a]pyridin-8-yl)vinyl)-1,3,4-oxathiazol-2-one] |  |  |  | solubility at 18 h (physchem [7]): 2.4 µM (≈ 0.67 µg/mL)
O=c1oc(C(O)c2ccccc2)ns1 (stereo not drawn) [compound 14, 5-(Hydroxy(phenyl)methyl)-1,3,4-oxathiazol-2-one] | 20 µM |  |  | 
O=c1oc(/C=C/c2ccc(Cl)cc2)ns1 [compound 39, (E)-5-(4-Chlorostyryl)-1,3,4-oxathiazol-2-one] | > 100 µM | 0.565 µM | 98.2% | 
O=c1oc(/C=C/c2ccc([N+](=O)[O-])cc2)ns1 [compound 36, (E)-5-(4-Nitrostyryl)-1,3,4-oxathiazol-2-one] | 26 µM | 1.4 µM | 96.9% | 
O=c1oc(/C=C/C(F)(F)F)ns1 [compound 22, (E)-5-(3,3,3-Trifluoroprop-1-en-1-yl)-1,3,4-oxathiazol-2-one] | > 100 µM |  |  | remaining at 24 h, 50 µM (physchem [4]): 79.9%; solubility at 18 h (physchem [2]): 44.1 µM (≈ 8.69 µg/mL)
N#Cc1ccc(/C=C/c2nsc(=O)o2)cc1 [compound 37, (E)-4-(2-(2-Oxo-1,3,4-oxathiazol-5-yl)vinyl)benzonitrile] | 41.5 µM | 0.495 µM | 95.4% | 
O=c1oc(/C=C/c2ccccn2)ns1 [compound 54, (E)-5-(2-(Pyridin-2-yl)vinyl)-1,3,4-oxathiazol-2-one] |  |  |  | solubility at 18 h (physchem [7]): 64.6 µM (≈ 13.3 µg/mL)
CCCCCc1nsc(=O)o1 [compound 7, 5-Pentyl-1,3,4-oxathiazol-2-one] | > 100 µM |  |  | 
CC(C)c1ccc(/C=C/c2nsc(=O)o2)cc1 [compound 29, (E)-5-(4-Isopropylstyryl)-1,3,4-oxathiazol-2-one] | 14.5 µM | 1.7 µM | 99.8% | 
O=c1oc(C2CC2)ns1 [compound 6, 5-Cyclopropyl-1,3,4-oxathiazol-2-one] | > 100 µM |  |  | 
O=c1oc(/C(=C/c2ccccc2)c2ccccc2)ns1 [compound 23, (E)-5-(1,2-Diphenylvinyl)-1,3,4-oxathiazol-2-one] | 14 µM |  |  | 
O=c1oc(/C=C/c2ccc(OC(F)(F)F)cc2)ns1 [compound 32, (E)-5-(4-(Trifluoromethoxy)styryl)-1,3,4-oxathiazol-2-one] | > 100 µM | 0.78 µM | 94.8% | 
COC(=O)c1ccc(/C=C/c2nsc(=O)o2)cc1 [compound 35, (E)-Methyl 4-(2-(2-oxo-1,3,4-oxathiazol-5-yl)vinyl)benzoate] | 27.5 µM | 0.415 µM | 97.3% | 
O=c1oc(Cc2cccc3ccccc23)ns1 [compound 12, 5-(Naphthalen-1-ylmethyl)-1,3,4-oxathiazol-2-one] | > 100 µM |  |  | 
Cc1ccc(/C=C/c2nsc(=O)o2)cc1 [compound 30, (E)-5-(4-Methylstyryl)-1,3,4-oxathiazol-2-one] | > 100 µM | 1 µM | 96% | 
O=Cc1ccc(/C=C/c2nsc(=O)o2)cc1 [compound 38, (E)-4-(2-(2-Oxo-1,3,4-oxathiazol-5-yl)vinyl)benzaldehyde] | 32.5 µM | 0.695 µM | 91.4% | 
CCc1ccccc1/C=C/c1nsc(=O)o1 [compound 46, (E)-5-(2-Ethylstyryl)-1,3,4-oxathiazol-2-one] | > 100 µM |  | 98% | 
Cc1cccc(/C=C/c2nsc(=O)o2)c1 [compound 41, (E)-5-(3-Methylstyryl)-1,3,4-oxathiazol-2-one] | 39 µM | 1.6 µM | 98.1% | 

Compound | IC50 [1] | IC50 [5] | remaining at 24 h, 50 µM (physchem [6]) | also measured
O=C(c1ccccc1)c1nsc(=O)o1 [compound 19, 5-Benzoyl-1,3,4-oxathiazol-2-one] | 2.95 µM |  |  | IC50 [3]: 2.25 µM; remaining at 24 h, 50 µM (physchem [4]): 46.8%; solubility at 18 h (physchem [2]): 5.7 µM (≈ 1.18 µg/mL)
O=c1oc(/C=C/c2cccnc2)ns1 [compound 55, (E)-5-(2-(Pyridin-3-yl)vinyl)-1,3,4-oxathiazol-2-one] |  |  |  | solubility at 18 h (physchem [7]): 70.6 µM (≈ 14.6 µg/mL)
O=c1oc(CF)ns1 [compound 8, 5-(Fluoromethyl)-1,3,4-oxathiazol-2-one] | 1.4 µM |  |  | 
COc1cccc(Cc2nsc(=O)o2)c1 [compound 10, 5-(3-Methoxybenzyl)-1,3,4-oxathiazol-2-one] | > 100 µM |  |  | 
COc1cccc(-c2nsc(=O)o2)c1 [compound 3, 5-(3-Methoxyphenyl)-1,3,4-oxathiazol-2-one] | 15 µM |  |  | 
O=c1oc(-c2cnccn2)ns1 [compound 2, 5-(Pyrazin-2-yl)-1,3,4-oxathiazol-2-one] | 4.5 µM |  |  | 
O=c1oc(/C=C/c2cccc(OC(F)(F)F)c2)ns1 [compound 43, (E)-5-(3-(Trifluoromethoxy)styryl)-1,3,4-oxathiazol-2-one] | 39.5 µM | 1.8 µM | 96.2% | 
CCc1ccc(/C=C/c2nsc(=O)o2)cc1 [compound 31, (E)-5-(4-Ethylstyryl)-1,3,4-oxathiazol-2-one] | > 100 µM | 1.08 µM | 98.2% | 
O=c1oc(C#Cc2ccccc2)ns1 [compound 20, 5-(Phenylethynyl)-1,3,4-oxathiazol-2-one] | 4.2 µM |  |  | IC50 [3]: 1.03 µM; remaining at 24 h, 50 µM (physchem [4]): 89.6%; solubility at 18 h (physchem [2]): 24.9 µM (≈ 5.06 µg/mL)
O=c1oc(-c2ccccc2)ns1 [compound 1, 5-Phenyl-1,3,4-oxathiazol-2-one] | 6.2 µM |  |  | 
O=c1oc(-c2cccc(F)c2)ns1 [compound 4, 5-(3-Fluorophenyl)-1,3,4-oxathiazol-2-one] | 11 µM |  |  | 
O=c1onc(-c2ccccc2)o1 [compound 24, 3-Phenyl-1,4,2-dioxazol-5-one] | > 100 µM |  |  | remaining at 24 h, 50 µM (physchem [4]): 8.5%; solubility at 18 h (physchem [2]): 7.6 µM (≈ 1.24 µg/mL)
O=c1oc(CCc2ccccc2)ns1 [compound 15, 5-Phenethyl-1,3,4-oxathiazol-2-one] | 6.7 µM |  |  | 
COc1ncccc1/C=C/c1nsc(=O)o1 [compound 50, (E)-5-(2-(2-Methoxypyridin-3-yl)vinyl)-1,3,4-oxathiazol-2-one] | 29.5 µM |  |  | remaining at 24 h, 50 µM (physchem [8]): 97.7%; solubility at 18 h (physchem [7]): 2.1 µM (≈ 0.496 µg/mL)
CO[C@H](c1ccccc1)c1nsc(=O)o1 [compound 16, (R)-5-(Methoxy(phenyl)methyl)-1,3,4-oxathiazol-2-one] | 5.8 µM |  |  | 
O=c1onc(/C=C/c2ccccc2)o1 [compound 25] |  |  |  | solubility at 18 h (physchem [2]): 12.3 µM (≈ 2.33 µg/mL)
CCOC(=O)c1ccccc1/C=C/c1nsc(=O)o1 [compound 48, (E)-Ethyl 2-(2-(2-Oxo-1,3,4-oxathiazol-5-yl)vinyl)benzoate] | > 100 µM |  | 97.7% | 
C=Cc1nsc(=O)o1 [compound 21, 5-Vinyl-1,3,4-oxathiazol-2-one] | 9.1 µM |  |  | 
O=c1oc(CCCl)ns1 [compound 5, 5-(2-Chloroethyl)-1,3,4-oxathiazol-2-one] | > 100 µM |  |  | 
O=c1oc(/C=C/c2cc(Cl)ccc2Cl)ns1 [compound 40, (E)-5-(2,5-Dichlorostyryl)-1,3,4-oxathiazol-2-one] | 50 µM | 0.785 µM | 98.5% | 
O=c1oc(/C=C/c2ccccc2OC(F)(F)F)ns1 [compound 47, (E)-5-(2-(Trifluoromethoxy)styryl)-1,3,4-oxathiazol-2-one] | > 100 µM |  | 95.7% | 
CCOC(=O)c1ccc(/C=C/c2nsc(=O)o2)cc1 [compound 33, (E)-Ethyl 4-(2-(2-oxo-1,3,4-oxathiazol-5-yl)vinyl)benzoate] | > 100 µM | 0.475 µM | 91.1% | 
CCOC(=O)c1cccc(/C=C/c2nsc(=O)o2)c1 [compound 44, (E)-Ethyl 3-(2-(2-Oxo-1,3,4-oxathiazol-5-yl)vinyl)benzoate] | > 100 µM | 9.9 µM | 96% | 
O=c1oc(/C=C/c2c[nH]c3ccccc23)ns1 [compound 57, 57] | 5 µM |  |  | solubility at 18 h (physchem [7]): 4.1 µM (≈ 1 µg/mL)
O=Cc1ccc(OCc2nsc(=O)o2)cc1 [compound 11, 4-((2-Oxo-1,3,4-oxathiazol-5-yl)methoxy)benzaldehyde] | > 100 µM |  |  | 
